Where “and” joins values, the source holds several entries; their conditions need not be identical. Equal values may be shown once.
Assays:
Assay in all cases: Caliper, Mobility shift assay off-chip
EPHA3 (human) = EPHA3 (human) (UniProt P29320)
MINK1 (human) = MINK1 (human) (UniProt Q8N4C8)
PRKCB1 (human) = PRKCB1 (human) (UniProt P05771)
NUAK1 (human) = NUAK1 (human) (UniProt O60285)
MUSK (human) = MUSK (human) (UniProt O15146)
MAPK8 (human) = MAPK8 (human) (UniProt P45983)
CAMK1 (human) = CAMK1 (human) (UniProt Q14012)
BRSK1 (human) = BRSK1 (human) (UniProt Q8TDC3)
TYK2 JH1 JH2 (human) = TYK2 JH1 JH2 (human) (UniProt P29597)
FYN (human) = FYN (human) (UniProt P06241)
HIPK4 (human) = HIPK4 (human) (UniProt Q8NE63)
NEK7 (human) = NEK7 (human) (UniProt Q8TDX7)
MAP4K2 (human) = MAP4K2 (human) (UniProt Q12851)
PRKG2 (human) = PRKG2 (human) (UniProt Q13237)
WNK2 (human) = WNK2 (human) (UniProt Q9Y3S1)
TNIK (human) = TNIK (human) (UniProt Q9UKE5)
CDK1 (human) = CDK1 (human) (UniProt P06493)
FLT1 (human) = FLT1 (human) (UniProt P17948)
PRKX (human) = PRKX (human) (UniProt P51817)
FLT3 (human) = FLT3 (human) (UniProt P36888)
MAPK9 (human) = MAPK9 (human) (UniProt P45984)
JAK3 JH1 JH2 (human) = JAK3 JH1 JH2 (human) (UniProt P52333)
IKBKB (human) = IKBKB (human) (UniProt O14920)
CHUK (human) = CHUK (human) (UniProt O15111)
TSSK1B (human) = TSSK1B (human) (UniProt Q9BXA7)
NEK4 (human) = NEK4 (human) (UniProt P51957)
SPHK1 (human) = SPHK1 (human) (UniProt Q9NYA1)
MAPKAPK3 (human) = MAPKAPK3 (human) (UniProt Q16644)
DYRK1B (human) = DYRK1B (human) (UniProt Q9Y463)
CSNK1D (human) = CSNK1D (human) (UniProt P48730)
PIM2 (human) = PIM2 (human) (UniProt Q9P1W9)
MYLK2 (human) = MYLK2 (human) (UniProt Q9H1R3)
CAMK2B (human) = CAMK2B (human) (UniProt Q13554)

CHUK (human), sequence (O15111 whole entry, looked up): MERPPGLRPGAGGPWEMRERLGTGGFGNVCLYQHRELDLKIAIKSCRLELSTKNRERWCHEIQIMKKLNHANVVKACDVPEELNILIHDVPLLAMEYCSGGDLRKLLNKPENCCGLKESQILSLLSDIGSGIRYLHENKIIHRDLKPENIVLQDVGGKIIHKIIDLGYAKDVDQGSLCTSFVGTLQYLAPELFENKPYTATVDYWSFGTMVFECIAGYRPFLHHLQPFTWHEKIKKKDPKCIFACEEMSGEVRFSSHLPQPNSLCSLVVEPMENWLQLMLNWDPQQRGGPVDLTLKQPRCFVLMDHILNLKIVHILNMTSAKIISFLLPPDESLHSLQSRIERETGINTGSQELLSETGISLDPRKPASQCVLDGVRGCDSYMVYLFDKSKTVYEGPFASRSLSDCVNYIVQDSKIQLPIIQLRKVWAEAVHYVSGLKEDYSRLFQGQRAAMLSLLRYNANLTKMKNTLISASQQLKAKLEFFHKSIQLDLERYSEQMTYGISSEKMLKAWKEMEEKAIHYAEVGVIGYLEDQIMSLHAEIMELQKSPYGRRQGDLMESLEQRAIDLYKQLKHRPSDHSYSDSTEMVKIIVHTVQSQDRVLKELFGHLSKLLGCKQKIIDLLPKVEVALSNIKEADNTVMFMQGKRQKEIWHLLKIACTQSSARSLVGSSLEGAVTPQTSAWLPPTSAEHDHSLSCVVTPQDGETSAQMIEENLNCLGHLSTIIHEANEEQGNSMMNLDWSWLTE
TNIK (human), sequence (Q9UKE5 whole entry, looked up): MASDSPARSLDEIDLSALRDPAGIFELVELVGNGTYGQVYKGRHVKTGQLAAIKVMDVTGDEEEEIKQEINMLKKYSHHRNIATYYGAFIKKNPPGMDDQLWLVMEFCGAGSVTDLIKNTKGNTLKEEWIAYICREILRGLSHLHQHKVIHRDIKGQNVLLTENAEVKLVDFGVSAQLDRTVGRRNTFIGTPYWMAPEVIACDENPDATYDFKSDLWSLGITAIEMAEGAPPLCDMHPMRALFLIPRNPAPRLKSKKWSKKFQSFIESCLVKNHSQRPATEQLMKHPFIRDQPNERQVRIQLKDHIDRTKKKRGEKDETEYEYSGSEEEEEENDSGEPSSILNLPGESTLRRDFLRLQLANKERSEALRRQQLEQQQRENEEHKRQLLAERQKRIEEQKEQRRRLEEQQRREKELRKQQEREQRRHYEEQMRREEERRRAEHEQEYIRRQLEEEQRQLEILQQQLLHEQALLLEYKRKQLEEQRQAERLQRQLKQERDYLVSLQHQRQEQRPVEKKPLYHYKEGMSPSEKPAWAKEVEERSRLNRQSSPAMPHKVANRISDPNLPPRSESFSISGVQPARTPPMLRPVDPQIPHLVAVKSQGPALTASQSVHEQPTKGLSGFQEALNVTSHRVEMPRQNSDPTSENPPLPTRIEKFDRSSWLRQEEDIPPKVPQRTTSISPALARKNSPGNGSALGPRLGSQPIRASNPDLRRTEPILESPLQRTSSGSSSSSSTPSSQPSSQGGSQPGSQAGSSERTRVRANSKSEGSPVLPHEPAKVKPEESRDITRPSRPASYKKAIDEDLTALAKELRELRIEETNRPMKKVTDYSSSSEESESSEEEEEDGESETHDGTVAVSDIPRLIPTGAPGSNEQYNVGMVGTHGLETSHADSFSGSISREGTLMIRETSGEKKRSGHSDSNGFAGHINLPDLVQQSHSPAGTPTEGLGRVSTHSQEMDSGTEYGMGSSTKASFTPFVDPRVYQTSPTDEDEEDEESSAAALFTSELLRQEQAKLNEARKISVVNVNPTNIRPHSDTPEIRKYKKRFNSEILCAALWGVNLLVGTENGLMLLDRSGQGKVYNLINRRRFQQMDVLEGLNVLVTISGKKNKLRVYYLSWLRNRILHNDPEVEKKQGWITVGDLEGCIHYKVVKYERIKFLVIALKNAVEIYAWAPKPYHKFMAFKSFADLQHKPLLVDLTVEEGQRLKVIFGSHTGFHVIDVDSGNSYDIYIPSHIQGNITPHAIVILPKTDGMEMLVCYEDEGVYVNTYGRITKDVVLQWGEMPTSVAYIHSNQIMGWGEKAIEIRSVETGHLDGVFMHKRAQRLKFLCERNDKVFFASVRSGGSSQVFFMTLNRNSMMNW
CAMK1 (human), sequence (Q14012 whole entry, looked up): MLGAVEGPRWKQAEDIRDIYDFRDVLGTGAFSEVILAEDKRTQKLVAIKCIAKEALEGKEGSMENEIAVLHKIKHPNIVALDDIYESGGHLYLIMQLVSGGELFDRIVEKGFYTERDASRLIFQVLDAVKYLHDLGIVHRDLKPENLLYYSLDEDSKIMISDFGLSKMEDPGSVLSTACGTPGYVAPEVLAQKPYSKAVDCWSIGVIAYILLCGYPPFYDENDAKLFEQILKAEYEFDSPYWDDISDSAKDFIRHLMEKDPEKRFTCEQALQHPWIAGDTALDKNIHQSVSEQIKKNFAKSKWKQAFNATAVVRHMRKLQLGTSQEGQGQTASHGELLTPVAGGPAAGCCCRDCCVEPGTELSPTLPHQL
BRSK1 (human), sequence (Q8TDC3 whole entry, looked up): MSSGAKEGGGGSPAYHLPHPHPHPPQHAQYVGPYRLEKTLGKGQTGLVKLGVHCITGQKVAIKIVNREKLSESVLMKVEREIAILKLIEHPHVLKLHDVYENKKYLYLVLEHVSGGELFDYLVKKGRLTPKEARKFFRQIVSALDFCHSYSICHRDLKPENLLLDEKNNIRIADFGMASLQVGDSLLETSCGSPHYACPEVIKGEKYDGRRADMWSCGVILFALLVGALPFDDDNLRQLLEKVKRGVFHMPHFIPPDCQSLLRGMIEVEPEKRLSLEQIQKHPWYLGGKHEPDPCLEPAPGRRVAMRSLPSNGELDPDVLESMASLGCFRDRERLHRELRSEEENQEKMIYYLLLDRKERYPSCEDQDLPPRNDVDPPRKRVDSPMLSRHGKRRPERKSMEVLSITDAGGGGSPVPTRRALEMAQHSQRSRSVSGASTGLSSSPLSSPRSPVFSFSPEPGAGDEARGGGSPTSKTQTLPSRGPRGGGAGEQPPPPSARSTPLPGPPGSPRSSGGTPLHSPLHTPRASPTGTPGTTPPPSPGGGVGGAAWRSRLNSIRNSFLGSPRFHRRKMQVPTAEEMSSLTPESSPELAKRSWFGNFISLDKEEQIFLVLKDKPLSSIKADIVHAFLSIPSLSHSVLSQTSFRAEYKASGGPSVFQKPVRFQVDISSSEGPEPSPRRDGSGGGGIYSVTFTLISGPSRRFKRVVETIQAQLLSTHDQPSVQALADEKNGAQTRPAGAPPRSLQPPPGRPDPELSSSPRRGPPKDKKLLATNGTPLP
PRKX (human), sequence (P51817 whole entry, looked up): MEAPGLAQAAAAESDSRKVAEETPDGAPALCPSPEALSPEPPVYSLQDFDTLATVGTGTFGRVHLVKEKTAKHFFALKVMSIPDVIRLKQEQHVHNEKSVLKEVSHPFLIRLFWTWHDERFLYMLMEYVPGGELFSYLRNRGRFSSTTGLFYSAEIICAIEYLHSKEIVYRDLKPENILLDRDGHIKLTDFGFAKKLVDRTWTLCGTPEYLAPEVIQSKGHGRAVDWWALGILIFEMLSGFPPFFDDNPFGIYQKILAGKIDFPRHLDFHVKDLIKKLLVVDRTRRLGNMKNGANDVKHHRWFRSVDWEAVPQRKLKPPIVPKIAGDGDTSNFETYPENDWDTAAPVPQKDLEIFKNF
SPHK1 (human), sequence (Q9NYA1 whole entry, looked up): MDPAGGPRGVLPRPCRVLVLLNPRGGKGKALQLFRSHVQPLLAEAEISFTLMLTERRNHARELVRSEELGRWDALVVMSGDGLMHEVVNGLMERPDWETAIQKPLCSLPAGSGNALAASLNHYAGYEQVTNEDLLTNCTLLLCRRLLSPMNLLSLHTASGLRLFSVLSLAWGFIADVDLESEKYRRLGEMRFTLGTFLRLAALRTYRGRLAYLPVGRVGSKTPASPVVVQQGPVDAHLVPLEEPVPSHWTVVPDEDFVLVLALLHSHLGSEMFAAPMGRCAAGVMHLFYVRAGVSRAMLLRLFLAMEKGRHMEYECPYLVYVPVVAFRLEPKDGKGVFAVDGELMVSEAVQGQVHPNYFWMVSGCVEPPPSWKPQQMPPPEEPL
NUAK1 (human), sequence (O60285 whole entry, looked up): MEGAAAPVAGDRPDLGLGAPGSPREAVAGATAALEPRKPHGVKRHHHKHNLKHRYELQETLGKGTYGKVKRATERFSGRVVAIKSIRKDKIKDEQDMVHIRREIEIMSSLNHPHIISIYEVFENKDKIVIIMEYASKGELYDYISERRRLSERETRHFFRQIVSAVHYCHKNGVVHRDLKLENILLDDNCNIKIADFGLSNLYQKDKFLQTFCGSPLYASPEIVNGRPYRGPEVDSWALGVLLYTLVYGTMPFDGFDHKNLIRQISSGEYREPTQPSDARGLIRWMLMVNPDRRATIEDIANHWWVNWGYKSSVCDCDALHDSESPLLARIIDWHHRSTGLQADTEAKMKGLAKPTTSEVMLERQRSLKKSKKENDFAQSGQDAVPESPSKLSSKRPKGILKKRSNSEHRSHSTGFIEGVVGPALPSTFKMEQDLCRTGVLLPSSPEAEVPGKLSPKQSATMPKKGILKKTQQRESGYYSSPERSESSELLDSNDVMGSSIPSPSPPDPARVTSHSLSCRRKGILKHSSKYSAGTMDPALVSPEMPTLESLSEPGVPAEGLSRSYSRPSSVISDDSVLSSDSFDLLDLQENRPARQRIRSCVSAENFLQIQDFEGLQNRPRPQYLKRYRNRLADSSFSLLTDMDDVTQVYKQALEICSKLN
TSSK1B (human), sequence (Q9BXA7 whole entry, looked up): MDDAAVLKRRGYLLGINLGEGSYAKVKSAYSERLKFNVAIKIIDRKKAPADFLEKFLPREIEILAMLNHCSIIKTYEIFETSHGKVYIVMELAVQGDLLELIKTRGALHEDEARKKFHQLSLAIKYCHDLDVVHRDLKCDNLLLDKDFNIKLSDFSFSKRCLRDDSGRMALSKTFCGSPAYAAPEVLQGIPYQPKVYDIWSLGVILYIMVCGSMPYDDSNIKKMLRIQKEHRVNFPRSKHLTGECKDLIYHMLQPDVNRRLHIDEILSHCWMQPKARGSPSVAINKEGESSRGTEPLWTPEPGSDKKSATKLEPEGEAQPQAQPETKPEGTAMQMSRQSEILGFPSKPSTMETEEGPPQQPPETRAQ

SMILES: CNC(=O)c1ccccc1Sc1ccc2c(/C=C/c3ccccn3)n[nH]c2c1
- inhibition (EPHA3 (human); compound 0.001 µM): -7.7%
- inhibition (EPHA3 (human); compound 0.02 µM): -4.2%
- inhibition (MINK1 (human); compound 0.001 µM): 0.7%
- inhibition (MINK1 (human); compound 0.02 µM): 0.1%
- inhibition (PRKCB1 (human); compound 0.001 µM): 4% and 4.9%
- inhibition (NUAK1 (human); compound 0.001 µM): 10.2%
- inhibition (NUAK1 (human); compound 0.02 µM): -1.9%
- inhibition (MUSK (human); compound 0.001 µM): -3.1%
- inhibition (MUSK (human); compound 0.02 µM): 4.8%
- inhibition (MAPK8 (human); compound 0.001 µM): -3.3%
- inhibition (MAPK8 (human); compound 0.02 µM): -3.5%
- inhibition (CAMK1 (human); compound 0.001 µM): -3.4%
- inhibition (CAMK1 (human); compound 0.02 µM): -4.5%
- inhibition (BRSK1 (human); compound 0.001 µM): -2.4%
- inhibition (BRSK1 (human); compound 0.02 µM): 20.1%
- inhibition (TYK2 JH1 JH2 (human); compound 0.001 µM): 3.7%
- inhibition (TYK2 JH1 JH2 (human); compound 0.02 µM): 1.6%
- inhibition (FYN (human); compound 0.001 µM): 7.3%
- inhibition (FYN (human); compound 0.02 µM): 6.1%
- inhibition (HIPK4 (human); compound 0.001 µM): -3.1%
- inhibition (HIPK4 (human); compound 0.02 µM): 1.9%
- inhibition (NEK7 (human); compound 0.001 µM): -3.9%
- inhibition (NEK7 (human); compound 0.02 µM): -4.1%
- inhibition (MAP4K2 (human); compound 0.001 µM): -2.6%
- inhibition (MAP4K2 (human); compound 0.02 µM): 4.8%
- inhibition (PRKG2 (human); compound 0.001 µM): -4.8%
- inhibition (PRKG2 (human); compound 0.02 µM): -6%
- inhibition (WNK2 (human); compound 0.001 µM): 1.8%
- inhibition (WNK2 (human); compound 0.02 µM): -0.3%
- inhibition (TNIK (human); compound 0.001 µM): -6%
- inhibition (TNIK (human); compound 0.02 µM): 1.4%
- inhibition (CDK1 (human); compound 0.001 µM): -3.7%
- inhibition (CDK1 (human); compound 0.02 µM): -3.5%
- inhibition (FLT1 (human); compound 0.001 µM): 25.3%
- inhibition (FLT1 (human); compound 0.02 µM): 99.3%
- inhibition (PRKX (human); compound 0.001 µM): 0.1%
- inhibition (PRKX (human); compound 0.02 µM): -1.7%
- inhibition (FLT3 (human); compound 0.02 µM): 14.8%
- inhibition (MAPK9 (human); compound 0.001 µM): -9.7%
- inhibition (MAPK9 (human); compound 0.02 µM): -9.3%
- inhibition (JAK3 JH1 JH2 (human); compound 0.001 µM): 4.6%
- inhibition (IKBKB (human); compound 0.001 µM): 5.5%
- inhibition (IKBKB (human); compound 0.02 µM): 3.1%
- inhibition (CHUK (human); compound 0.001 µM): -2.6%
- inhibition (CHUK (human); compound 0.02 µM): 2.6%
- inhibition (TSSK1B (human); compound 0.001 µM): -4.2%
- inhibition (TSSK1B (human); compound 0.02 µM): -3.6%
- inhibition (NEK4 (human); compound 0.001 µM): -5.5%
- inhibition (NEK4 (human); compound 0.02 µM): -4.4%
- inhibition (SPHK1 (human); compound 0.001 µM): -4.8%
- inhibition (SPHK1 (human); compound 0.02 µM): -4.1%
- inhibition (MAPKAPK3 (human); compound 0.001 µM): -0.7%
- inhibition (MAPKAPK3 (human); compound 0.02 µM): -5.2%
- inhibition (DYRK1B (human); compound 0.001 µM): 3.6%
- inhibition (DYRK1B (human); compound 0.02 µM): -0.4%
- inhibition (CSNK1D (human); compound 0.001 µM): -5.3% and -6.3%
- inhibition (CSNK1D (human); compound 0.02 µM): -5.2% and -5.3%
- inhibition (PIM2 (human); compound 0.001 µM): 4.4%
- inhibition (PIM2 (human); compound 0.02 µM): 2.5%
- inhibition (MYLK2 (human); compound 0.001 µM): -4.8%
- inhibition (MYLK2 (human); compound 0.02 µM): -2.6%

SMILES: Cc1ccc(Nc2nccc(N(C)c3ccc4c(C)n(C)nc4c3)n2)cc1S(N)(=O)=O
- inhibition (EPHA3 (human); compound 0.02 µM): -4.8%
- inhibition (EPHA3 (human); compound 0.2 µM): -4.4%
- inhibition (MINK1 (human); compound 0.02 µM): 2%
- inhibition (MINK1 (human); compound 0.2 µM): 10.8%
- inhibition (PRKCB1 (human); compound 0.02 µM): 3% and 5.4%
- inhibition (PRKCB1 (human); compound 0.2 µM): 0.8% and 5.1%
- inhibition (NUAK1 (human); compound 0.02 µM): -7.8%
- inhibition (NUAK1 (human); compound 0.2 µM): 42%
- inhibition (MUSK (human); compound 0.02 µM): -1.6%
- inhibition (MUSK (human); compound 0.2 µM): 0.7%
- inhibition (CAMK1 (human); compound 0.02 µM): -2.3%
- inhibition (CAMK1 (human); compound 0.2 µM): 1.4%
- inhibition (BRSK1 (human); compound 0.02 µM): 5.3%
- inhibition (BRSK1 (human); compound 0.2 µM): 3.2%
- inhibition (TYK2 JH1 JH2 (human); compound 0.02 µM): 3.7%
- inhibition (TYK2 JH1 JH2 (human); compound 0.2 µM): 7.2%
- inhibition (HIPK4 (human); compound 0.02 µM): 6.8%
- inhibition (HIPK4 (human); compound 0.2 µM): 12.3%
- inhibition (NEK7 (human); compound 0.02 µM): -2.9%
- inhibition (NEK7 (human); compound 0.2 µM): 0%
- inhibition (MAP4K2 (human); compound 0.02 µM): 2.6%
- inhibition (MAP4K2 (human); compound 0.2 µM): 28.7%
- inhibition (PRKG2 (human); compound 0.02 µM): -2.3%
- inhibition (PRKG2 (human); compound 0.2 µM): -2.6%
- inhibition (WNK2 (human); compound 0.02 µM): 1%
- inhibition (WNK2 (human); compound 0.2 µM): 4.3%
- inhibition (TNIK (human); compound 0.02 µM): 7.3%
- inhibition (TNIK (human); compound 0.2 µM): 46.6%
- inhibition (CDK1 (human); compound 0.02 µM): -2.9%
- inhibition (CDK1 (human); compound 0.2 µM): -1.5%
- inhibition (FLT1 (human); compound 0.02 µM): 66.5%
- inhibition (FLT1 (human); compound 0.2 µM): 99.8%
- inhibition (PRKX (human); compound 0.02 µM): -0.6%
- inhibition (PRKX (human); compound 0.2 µM): 0.8%
- inhibition (FLT3 (human); compound 0.02 µM): 24.7%
- inhibition (FLT3 (human); compound 0.2 µM): 69.9%
- inhibition (JAK3 JH1 JH2 (human); compound 0.02 µM): 4.1%
- inhibition (JAK3 JH1 JH2 (human); compound 0.2 µM): 7.7%
- inhibition (IKBKB (human); compound 0.02 µM): -3.7%
- inhibition (IKBKB (human); compound 0.2 µM): -2.6%
- inhibition (CAMK2B (human); compound 0.02 µM): -4.2%
- inhibition (CAMK2B (human); compound 0.2 µM): -5.5%
- inhibition (CHUK (human); compound 0.02 µM): -1.2%
- inhibition (CHUK (human); compound 0.2 µM): 0.9%
- inhibition (TSSK1B (human); compound 0.02 µM): -1.1%
- inhibition (TSSK1B (human); compound 0.2 µM): -1.7%
- inhibition (NEK4 (human); compound 0.02 µM): -3.5%
- inhibition (NEK4 (human); compound 0.2 µM): -0.8%
- inhibition (SPHK1 (human); compound 0.02 µM): -4.8%
- inhibition (SPHK1 (human); compound 0.2 µM): -5.9%
- inhibition (MAPKAPK3 (human); compound 0.02 µM): 2.3%
- inhibition (MAPKAPK3 (human); compound 0.2 µM): 1.6%
- inhibition (DYRK1B (human); compound 0.02 µM): -4.3%
- inhibition (DYRK1B (human); compound 0.2 µM): 7.4%
- inhibition (CSNK1D (human); compound 0.02 µM): -1.8% and -2.9%
- inhibition (CSNK1D (human); compound 0.2 µM): -2.9% and -3.3%
- inhibition (PIM2 (human); compound 0.02 µM): 2.7%
- inhibition (PIM2 (human); compound 0.2 µM): 6.8%

Source: the kinase profiling compilation of Christmann-Franck et al. (2016)
